Where “and” joins values, the source holds several entries; their conditions need not be identical. Equal entries are not always repeated.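 Briefly, cells in 96-well plates were exposed to five compound concentrations for 48 h, and endpoints were estimated by linear interpolation. The concentration for 50% growth inhibition is given as GI50. TGI is the concentration that stops growth completely.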
How the values were obtained:
Test in all cases: growth of human tumour cells (NCI), 48 h
OVCAR-8 ovarian = tested on: OVCAR-8 ovarian
SF-295 CNS = tested on: SF-295 CNS
OVCAR-3 ovarian = tested on: OVCAR-3 ovarian
NCI-H23 lung = tested on: NCI-H23 lung
NCI/ADR-RES ovarian = tested on: NCI/ADR-RES ovarian
IGROV1 ovarian = tested on: IGROV1 ovarian
U251 CNS = tested on: U251 CNS
PC-3 prostate = tested on: PC-3 prostate
A498 renal = tested on: A498 renal
HOP-92 NSCLC = tested on: HOP-92 NSCLC

## C=C1C(=O)O[C@@H]2/C=C(\C)CC/C=C(\C)CC[C@@]12O
OVCAR-8 ovarian
  TGI: 5.18 µM
SF-295 CNS
  TGI: 25.2 µM
OVCAR-3 ovarian
  TGI: 6.43 µM
NCI-H23 lung
  TGI: 4.32 µM
NCI/ADR-RES ovarian
  TGI: 41.6 µM
IGROV1 ovarian
  TGI: 7.63 µM
U251 CNS
  TGI: 19.7 µM
PC-3 prostate
  TGI: 15.6 µM
A498 renal
  TGI: 24.8 µM
HOP-92 NSCLC
  TGI: 3.63 µM

## COC(=O)C1=C(C)N2CCSC2(C)C(C(=O)OC)C1c1cccc(Cl)c1 (centres undefined)
OVCAR-8 ovarian
  TGI: > 100 µM
SF-295 CNS
  TGI: 34 µM
OVCAR-3 ovarian
  TGI: 34.6 µM
NCI-H23 lung
  TGI: 73.8 µM
IGROV1 ovarian
  TGI: > 100 µM
HOP-92 NSCLC
  TGI: 53.2 µM

## CC[C@@]1(O)C(=O)OCc2c1cc1n(c2=O)Cc2cc3ccccc3nc2-1
OVCAR-8 ovarian
  GI50: 24.6 nM
  TGI: 0.555 µM
SF-295 CNS
  TGI: 0.0698 µM
OVCAR-3 ovarian
  GI50: 0.214 µM
  TGI: 0.726 µM
NCI-H23 lung
  TGI: 0.0928 µM
NCI/ADR-RES ovarian
  GI50: < 0.0143 µM
  TGI: 0.125 µM
IGROV1 ovarian
  TGI: 11.3 µM
U251 CNS
  GI50: < 12.9 nM
  TGI: 0.769 µM
PC-3 prostate
  TGI: > 100 µM
A498 renal
  TGI: 0.212 µM
HOP-92 NSCLC
  TGI: 0.131 µM

## CCN1c2cc(Br)cc3[nH]c(=O)n(c23)CCC1C (centres undefined)
OVCAR-8 ovarian
  TGI: 30.9 µM
SF-295 CNS
  TGI: 39.6 µM
OVCAR-3 ovarian
  TGI: 28.9 µM
NCI-H23 lung
  TGI: 53.2 µM
NCI/ADR-RES ovarian
  TGI: 23 µM
IGROV1 ovarian
  TGI: 31.5 µM
U251 CNS
  TGI: 28.6 µM
PC-3 prostate
  TGI: 39.7 µM
A498 renal
  TGI: 29 µM
HOP-92 NSCLC
  TGI: 9.25 µM

## Clc1cc(Cl)c2cc3cccc[n+]3cc2c1Cl
OVCAR-8 ovarian
  TGI: 31 µM
SF-295 CNS
  TGI: 39.8 µM
OVCAR-3 ovarian
  TGI: 26.8 µM
NCI-H23 lung
  TGI: 30.4 µM
NCI/ADR-RES ovarian
  TGI: 33.2 µM
U251 CNS
  TGI: 34.7 µM
PC-3 prostate
  TGI: 29.2 µM
A498 renal
  TGI: 34 µM
HOP-92 NSCLC
  TGI: 21.7 µM

## CNC1Cc2c[nH]c3cccc(c23)C12C=C(C)C(=O)O2 (centres undefined)
OVCAR-8 ovarian
  TGI: > 100 µM
SF-295 CNS
  TGI: > 100 µM
OVCAR-3 ovarian
  TGI: > 100 µM
NCI-H23 lung
  TGI: > 100 µM
NCI/ADR-RES ovarian
  TGI: > 100 µM
IGROV1 ovarian
  TGI: > 100 µM
U251 CNS
  TGI: > 100 µM
PC-3 prostate
  TGI: > 100 µM
A498 renal
  TGI: > 100 µM
HOP-92 NSCLC
  TGI: > 100 µM

## Nc1ccc(O)c2c1C(=O)c1c(N)ccc(O)c1C2=O
OVCAR-8 ovarian
  TGI: > 100 µM
SF-295 CNS
  TGI: > 100 µM
OVCAR-3 ovarian
  TGI: > 100 µM
NCI-H23 lung
  TGI: > 100 µM
IGROV1 ovarian
  TGI: > 100 µM
U251 CNS
  TGI: > 100 µM
A498 renal
  TGI: > 100 µM
HOP-92 NSCLC
  TGI: > 100 µM

## Nc1[nH]c(=S)nc2nc3c(c(-c4ccccc4)c12)CCCC3
OVCAR-8 ovarian
  TGI: > 100 µM
SF-295 CNS
  TGI: > 100 µM
OVCAR-3 ovarian
  TGI: > 100 µM
NCI-H23 lung
  TGI: > 100 µM
NCI/ADR-RES ovarian
  TGI: > 100 µM
IGROV1 ovarian
  TGI: > 100 µM
U251 CNS
  TGI: > 100 µM
PC-3 prostate
  TGI: > 100 µM

## CC(C)(C)OC(=O)N1C(OP(=O)(Oc2ccccc2)Oc2ccccc2)=CSc2ccccc21
OVCAR-8 ovarian
  TGI: > 100 µM
SF-295 CNS
  TGI: > 100 µM
OVCAR-3 ovarian
  TGI: > 100 µM
NCI-H23 lung
  TGI: > 100 µM
NCI/ADR-RES ovarian
  TGI: > 100 µM
IGROV1 ovarian
  TGI: > 100 µM
U251 CNS
  TGI: > 100 µM
PC-3 prostate
  TGI: > 100 µM
HOP-92 NSCLC
  TGI: 80.9 µM

## CC(C)(C)c1ccc2c(c1)C#Cc1cc(C(C)(C)C)ccc1OCCCO2
OVCAR-8 ovarian
  TGI: > 100 µM
SF-295 CNS
  TGI: > 100 µM
OVCAR-3 ovarian
  TGI: > 100 µM
NCI-H23 lung
  TGI: > 100 µM
NCI/ADR-RES ovarian
  TGI: > 100 µM
IGROV1 ovarian
  TGI: > 100 µM
U251 CNS
  TGI: > 100 µM
PC-3 prostate
  TGI: > 100 µM
A498 renal
  TGI: > 100 µM

## COc1cc(/C=C2\N=C(c3ccccc3)N(c3ccc(C(=O)c4ccccc4)cc3N3C(=O)/C(=C/c4ccc(O)c(OC)c4)N=C3c3ccccc3)C2=O)ccc1O
OVCAR-8 ovarian
  TGI: 32.5 µM
SF-295 CNS
  TGI: 28.8 µM
OVCAR-3 ovarian
  TGI: 8.7 µM
NCI/ADR-RES ovarian
  TGI: 89.5 µM
IGROV1 ovarian
  TGI: 29.7 µM
U251 CNS
  TGI: 37.5 µM
PC-3 prostate
  TGI: 26.7 µM
A498 renal
  TGI: 36.7 µM
HOP-92 NSCLC
  TGI: > 100 µM

## NC(CCOCCP(=O)(O)CCC1C=CC=CC1)C(=O)O (centres undefined)
OVCAR-8 ovarian
  TGI: > 100 µM
SF-295 CNS
  TGI: > 100 µM
OVCAR-3 ovarian
  TGI: > 100 µM
NCI-H23 lung
  TGI: > 100 µM
NCI/ADR-RES ovarian
  TGI: > 100 µM
IGROV1 ovarian
  TGI: > 100 µM
U251 CNS
  TGI: > 100 µM
PC-3 prostate
  TGI: > 100 µM
HOP-92 NSCLC
  TGI: > 100 µM

## CCN(CC)CC[n+]1ccc2c(C)c3[nH]c4ccc(O)cc4c3c(C)c2c1
OVCAR-8 ovarian
  GI50: 1230 nM
  TGI: 44.6 µM and 13.3 µM
SF-295 CNS
  TGI: 30.1 µM and 28.4 µM
OVCAR-3 ovarian
  GI50: 6.62 µM
  TGI: 57.9 µM and 51.9 µM
NCI-H23 lung
  GI50: 2450 nM
  TGI: 25.1 µM and 22.5 µM
NCI/ADR-RES ovarian
  GI50: 21.7 µM
  TGI: 79.6 µM and 102 µM
IGROV1 ovarian
  GI50: 4.79 µM
  TGI: 38.6 µM and 73 µM
U251 CNS
  GI50: 624 nM
  TGI: 9.12 µM and 11.1 µM
PC-3 prostate
  TGI: 31.8 µM
A498 renal
  GI50: 20.5 µM
  TGI: 74.6 µM and 84.3 µM
HOP-92 NSCLC
  GI50: 2330 nM
  TGI: 32.6 µM and 12.4 µM

## OCC(O)CNc1ncnc2ccccc12 (centres undefined)
OVCAR-8 ovarian
  TGI: > 100 µM
SF-295 CNS
  TGI: > 100 µM
OVCAR-3 ovarian
  TGI: > 100 µM
NCI-H23 lung
  TGI: > 100 µM
NCI/ADR-RES ovarian
  TGI: > 100 µM
IGROV1 ovarian
  TGI: > 100 µM
U251 CNS
  TGI: > 100 µM
PC-3 prostate
  TGI: > 100 µM
A498 renal
  TGI: > 100 µM
HOP-92 NSCLC
  TGI: > 100 µM

## CCOC(=O)CCC(C(=O)OCC)n1nc2ccc(Nc3c(C)[n+]([O-])c4cc(F)c(OCC)cc4[n+]3[O-])cc2n1 (centres undefined)
OVCAR-8 ovarian
  TGI: > 100 µM
SF-295 CNS
  TGI: > 100 µM
OVCAR-3 ovarian
  TGI: > 100 µM
NCI-H23 lung
  TGI: > 100 µM
NCI/ADR-RES ovarian
  TGI: > 100 µM
IGROV1 ovarian
  TGI: > 100 µM
U251 CNS
  TGI: 62.7 µM
PC-3 prostate
  TGI: > 100 µM
A498 renal
  TGI: > 100 µM
HOP-92 NSCLC
  TGI: 87.8 µM

## COc1cc(/C=N/c2nc3cc4sc(/N=C/c5cc(OC)c(OC)c(OC)c5)nc4cc3s2)cc(OC)c1OC
OVCAR-8 ovarian
  TGI: > 100 µM
SF-295 CNS
  TGI: > 100 µM
OVCAR-3 ovarian
  TGI: > 100 µM
NCI-H23 lung
  TGI: > 100 µM
NCI/ADR-RES ovarian
  TGI: > 100 µM
IGROV1 ovarian
  TGI: > 100 µM
U251 CNS
  TGI: > 100 µM
PC-3 prostate
  TGI: > 100 µM
A498 renal
  TGI: > 100 µM
HOP-92 NSCLC
  TGI: > 100 µM
